Values quoted from earlier work in patent US20230285286A1, “DRUG VEHICLE COMPOSITIONS AND METHODS OF USE THEREOF” (PS Therapy, Inc., priority 2016, published 2023).
Structures can show the parent of a compound that is named as a salt.

Key:
[1] = deionized water at 25° C.

| Compound | LogP Value | Solubility in Water (PPM) [1] [PPM] |
| --- | --- | --- |
| CN1CCC(=C2c3ccccc3CCn3c(C=O)cnc32)CC1 [Alcaftadine] | 3.2 | 17 |
| CN1CCCC(n2nc(Cc3ccc(Cl)cc3)c3ccccc3c2=O)CC1 (centres unmarked) [Azelastine HCl] | 3.81 | 35 |
| CC[C@H]1OC(=O)[C@H](C)[C@@H](O[C@H]2C[C@@](C)(OC)[C@@H](O)[C@H](C)O2)[C@H](C)[C@@H](O[C@@H]2O[C@H](C)C[C@H](N(C)C)[C@H]2O)[C@](C)(O)C[C@@H](C)CN(C)[C@H](C)[C@@H](O)[C@]1(C)O [Azithromycin] | 3.03 | 2.37 |
| O=C(O)CCCN1CCC(O[C@@H](c2ccc(Cl)cc2)c2ccccn2)CC1.O=S(=O)(O)c1ccccc1 [Bepotastine Besilate] |  | 50 |
| N[C@@H]1CCCCN(c2c(F)cc3c(=O)c(C(=O)O)cn(C4CC4)c3c2Cl)C1 [Besifloxacin] | 0.54 | 0 |
| CC(C)NCC(O)COc1ccc(CCOCC2CC2)cc1 (centres unmarked) [Betaxolol HCl] | 3 | 17190 |
| CCNC(=O)CCC/C=C\C[C@@H]1[C@@H](/C=C/[C@@H](O)CCc2ccccc2)[C@H](O)C[C@@H]1O [Bimatoprost] | 3.2 | 19 |
| Brc1c(NC2=NCCN2)ccc2nccnc12 [Brimonidine] |  | 150 |
| CCN[C@H]1CN(CCCOC)S(=O)(=O)c2sc(S(N)(=O)=O)cc21 [Brinzolamide] | -1.8 | 713 |
| Nc1c(CC(=O)O)cccc1C(=O)c1ccc(Br)cc1 [Bromfenac] | 3.4 | 12 |
| O=C(O)c1cc(=O)c2c(OCC(O)COc3cccc4oc(C(=O)O)cc(=O)c34)cccc2o1 [Cromolyn Sodium] | 4.8 | 100000 |
| CCCC(=O)O[C@]1(C(=O)COC(C)=O)CC[C@H]2[C@@H]3C[C@H](F)C4=CC(=O)C=C[C@]4(C)[C@@]3(F)[C@@H](O)C[C@@]21C [Difluprednate] | 3.28 | 1 |
| CCN[C@H]1C[C@H](C)S(=O)(=O)c2sc(S(N)(=O)=O)cc21 [Dorzolamide] | -1 | 699 |
| CCOCCn1c(N2CCCN(C)CC2)nc2ccccc21 [Emedastine Difumarate] | 2.6 | 1440 |
| NC1=NCC2c3ccccc3Cc3ccccc3N12 (centres unmarked) [Epinastine HCl] | 2.34 |  |
| CC[C@H]1OC(=O)[C@H](C)[C@@H](O[C@H]2C[C@@](C)(OC)[C@@H](O)[C@H](C)O2)[C@H](C)[C@@H](O[C@@H]2O[C@H](C)C[C@H](N(C)C)[C@H]2O)[C@](C)(O)C[C@@H](C)C(=O)[C@H](C)[C@@H](O)[C@]1(C)O [Erythromycin] | 2.6 | 2000 |
| CC(=O)O[C@]1(C(C)=O)CC[C@H]2[C@@H]3C[C@H](C)C4=CC(=O)C=C[C@]4(C)[C@@]3(F)[C@@H](O)C[C@@]21C [Fluorometholone Acetate] |  | 6.27 |
| CC(C(=O)O)c1ccc(-c2ccccc2)c(F)c1 (centres unmarked) [Flurbiprofen] |  | 5 |
| CC(C)Cc1ccc(C(C)C(=O)O)cc1 (centres unmarked) [Ibuprofen] |  | 21 |
| O=C(c1ccccc1)c1ccc2n1CCC2C(=O)O (centres unmarked) [Ketorolac Tromethamine] | -0.92 | 861 |

| Compound | LogP Value | Solubility in Water (PPM) [1] [PPM] |
| --- | --- | --- |
| CN1CCC(=C2c3ccccc3CC(=O)c3sccc32)CC1 [Ketotifen Fumarate] | 3.49 | 7.87 |
| CC(C)OC(=O)CCC/C=C\C[C@@H]1[C@@H](CC[C@@H](O)CCc2ccccc2)[C@H](O)C[C@@H]1O [Latanoprost] |  | 1.29 |
| CC(C)(C)NC[C@H](O)COc1cccc2c1CCCC2=O [Levobunolol HCl] |  | 251 |
| N#Cc1cc(NC(=O)C(=O)O)c(Cl)c(NC(=O)C(=O)O)c1.NC(CO)(CO)CO.NC(CO)(CO)CO [Lodoxamide Tromethamine] | 0.72 | 36.1 |
| CCOC(=O)O[C@]1(C(=O)OCCl)CC[C@H]2[C@@H]3CCC4=CC(=O)C=C[C@]4(C)[C@H]3[C@@H](O)C[C@@]21C [Loteprednol Etabonate] | 3.4 | 0.5 |
| COc1c(N2C[C@@H]3CCCN[C@@H]3C2)c(F)cc2c(=O)c(C(=O)O)cn(C3CC3)c12 [Moxifloxacin] |  | 1146 |
| CCCc1c2oc(C(=O)O)cc(=O)c2cc2c(=O)cc(C(=O)O)n(CC)c12 [Nedocromil Sodium] | 2.82 | 80.8 |
| NC(=O)Cc1cccc(C(=O)c2ccccc2)c1N [Nepafenac] | 1.53 | 14 |
| CN(C)CC/C=C1/c2ccccc2COc2ccc(CC(=O)O)cc21 [Olopatadine HCl] | 3.4 | 31.3 |
| CC(=O)OCC(=O)[C@@]1(O)CC[C@H]2[C@@H]3CCC4=CC(=O)C=C[C@]4(C)[C@H]3[C@@H](O)C[C@@]21C [Prednisolone Acetate] | 1.332 |  |
| CCC(=O)[C@@]1(C)[C@H](C)C[C@H]2[C@@H]3CCC4=CC(=O)C=C[C@]4(C)[C@H]3[C@@H](O)C[C@@]21C [Rimexolone] | 4.2 | 0 |
| C=CC[C@@H]1/C=C(\C)C[C@H](C)C[C@H](OC)[C@H]2O[C@@](O)(C(=O)C(=O)N3CCCC[C@H]3C(=O)O[C@H](/C(C)=C/[C@@H]3CC[C@@H](O)[C@H](OC)C3)[C@H](C)[C@@H](O)CC1=O)[C@H](C)C[C@@H]2OC [Tacrolimus] | 5.59 | 12 |
| CC(C)OC(=O)CCC/C=C\C[C@@H]1[C@@H](/C=C/C(F)(F)COc2ccccc2)[C@H](O)C[C@@H]1O [Tafluprost] | 4.05 | 0 |
| CC(C)(C)NC[C@H](O)COc1nsnc1N1CCOCC1 [Timolol Maleate] |  | 5000 |
| NC[C@H]1O[C@H](O[C@H]2[C@H](O)[C@@H](O[C@H]3O[C@H](CO)[C@@H](O)[C@H](N)[C@H]3O)[C@H](N)C[C@@H]2N)[C@H](N)C[C@@H]1O [Tobramycin] | -5.8 | 10000 |
| CC(C)OC(=O)CCC/C=C\C[C@@H]1[C@@H](/C=C/[C@@H](O)COc2cccc(C(F)(F)F)c2)[C@H](O)C[C@@H]1O [Travoprost] | 4.6 | 16000 |
| COc1cc(Cc2cnc(N)nc2N)cc(OC)c1OC [Trimethoprim] |  | 999 |
| Gentamicin | -3.1 |  |
| Gramicidin |  | 6 |
| Polymyxin B |  | 0 |
